This note sets out measurements from article PMC4765733 (Journal of medicinal chemistry, 2015).

The subject of one experiment is HIV-1LAI. Put plainly: Antiviral MTT assay, MT-2 cells exposed to HIV-1LAI. The class given is cell-based. The following applies: Human immunodeficiency virus 1, MT2, read-out: IC50 (antiviral activity).
Experiment [1] deals with HIV-1ERS104pre (wild type). Put plainly: Antiviral p24 Gag assay in PHA-PBMs, wild-type HIV-1ERS104pre. The class given is cell-based.

The IC50 is the concentration at which inhibition is half-maximal. As to `CC(C)CN(C[C@@H](O)[C@H](Cc1ccccc1)NC(=O)O[C@H]1CO[C@H]2OCC[C@H]21)S(=O)(=O)c1ccc(N)cc1` [Darunavir], the IC50 in the experiment on HIV-1LAI stood at 3 nM. Take `COc1ccc(S(=O)(=O)N(CC(C)C)C[C@@H](O)[C@H](Cc2cccc(-c3ccccc3OC)c2)NC(=O)O[C@H]2CO[C@H]3OCC[C@H]32)cc1` [Inhibitor 21e, (3R,3aS,6aR)-hexahydrofuro[2,3-b]furan-3-yl-((2S,3R)-3-hydroxy-4-(N-isobutyl-4-methoxyphenylsulfonamido)-1-(2'-methoxy-[1,1'-biphenyl]-3-yl)butan-2-yl)carbamate]: the “EC50 fold better than APV” value in experiment [1] was roughly 10 fold.
